In ChEMBL document CHEMBL5728770, “Heterocycle comprising tyrosine kinase inhibitors” (2021):

Molecular target: Tyrosine-protein kinase BTK (Homo sapiens, UniProt Q06187)
Experiment: Enzymatic Activity Assay: A Caliper-based kinase assay (Caliper Life Sciences, Hopkinton, Mass.) was used to measure inhibition of BTK kinase activity of a compound of the present disclosure. Serial dilutions of test compounds were incubated with human recombinant BTK (0.5 nM), ATP (16 μM) and a phosphoacceptor peptide substrate FAM-GEEPLYWSFPAKKK-NH2 (1 μM) at room temperature for 3 h. The reaction was then terminated with EDTA, final concentration 20 mM and the phosphorylated reaction product was quantified on a Caliper Desktop Profiler (Caliper LabChip 3000). Percent inhibition was calculated for each compound dilution and the concentration that produced 50% inhibition was calculated.

Tyrosine-protein kinase BTK, sequence (Q06187 whole entry): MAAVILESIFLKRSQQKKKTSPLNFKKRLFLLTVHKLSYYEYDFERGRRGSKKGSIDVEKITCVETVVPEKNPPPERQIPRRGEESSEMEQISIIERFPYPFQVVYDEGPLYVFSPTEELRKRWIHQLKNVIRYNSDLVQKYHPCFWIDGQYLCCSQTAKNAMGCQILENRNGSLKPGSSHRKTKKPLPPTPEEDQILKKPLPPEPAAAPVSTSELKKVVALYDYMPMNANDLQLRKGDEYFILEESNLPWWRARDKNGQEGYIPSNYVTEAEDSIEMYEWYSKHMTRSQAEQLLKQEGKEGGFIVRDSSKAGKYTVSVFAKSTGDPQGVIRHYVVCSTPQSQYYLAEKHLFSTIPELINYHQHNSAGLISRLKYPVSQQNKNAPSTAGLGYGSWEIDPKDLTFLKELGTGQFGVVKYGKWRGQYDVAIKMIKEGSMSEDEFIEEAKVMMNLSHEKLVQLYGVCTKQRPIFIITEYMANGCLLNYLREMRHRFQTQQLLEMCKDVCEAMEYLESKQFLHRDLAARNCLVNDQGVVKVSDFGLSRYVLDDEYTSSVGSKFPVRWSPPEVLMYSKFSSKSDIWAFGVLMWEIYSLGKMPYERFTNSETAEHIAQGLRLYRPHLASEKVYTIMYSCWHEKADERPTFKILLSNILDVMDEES

Row | SMILES | IC50 [nM]
1 | CN1CCN(C(C)(C)C=C(C#N)C(=O)N2CCC[C@@H](c3nc(-c4ccc(Oc5ccccc5)cc4F)c4c(N)nccn34)C2)CC1=O | 2.6
2 | CC(C)(C=C(C#N)C(=O)N1CCC[C@@H](n2nc(-c3ccc(Oc4ccccc4)cc3F)c3c(N)ncnc32)C1)N1CCN(C2(C)COC2)CC1 | 0.3
3 | CC(C)(C=C(C#N)C(=O)N1CCC[C@@H](n2nc(-c3ccc(C(=O)Nc4ccccn4)cc3)c3c(N)nccc32)C1)N1CCN(C2COC2)CC1 | 2.2
4 | CC(C)(C=C(C#N)C(=O)N1CCC[C@@H](c2nc(-c3ccc(Oc4ccccc4)cc3F)c3c(N)nccn23)C1)N1CCN(C2(C)COC2)CC1 | 2.4
5 | CC(C)(C=C(C#N)C(=O)N1CCC[C@@H](n2nc(-c3ccc(Oc4ccccc4F)cc3)c3c(N)nccc32)C1)N1CCN(C2COC2)CC1 | 2.2
6 | CC(C)(C=C(C#N)C(=O)N1CCC[C@@H](n2nc(-c3ccc(Oc4ccccc4)cc3F)c3c(N)nccc32)C1)C1(C)CCN(C2COC2)CC1 | 45.7
7 | CC(C)(C=C(C#N)C(=O)N1CCC[C@@H](n2nc(-c3ccc(Oc4ccccc4)cc3F)c3c(N)nccc32)C1)N1CCN(C2COC2)CC1 | 1.4
8 | CC(C)(C=C(C#N)C(=O)N1CCC[C@@H](n2nc(-c3ccc(Oc4ccccc4)cc3F)c3c(N)nccc32)C1)N1CCN(C2(C)COC2)CC1 | 0.8
9 | Cc1cc(-c2nn([C@@H]3CCCN(C(=O)C(C#N)=CC(C)(C)N4CCN(C5COC5)CC4)C3)c3ccnc(N)c23)ccc1Oc1ccccc1 | 1.3
